{"source": "patent US5270182A", "about": "“Antibiotic compounds and their production” (Hoechst Aktiengesellschaft, priority 1991, dated 1993)", "key": {"[1]": {"test_system": "gram-positive bacteria", "test": "activity against gram-positive bacteria", "type": "cell-based", "text": "(§1) Compound M901809 and its acid hydrolysis product M901809H are active against gram-positive bacteria."}, "[2]": {"test_system": "Staph. epidermidis 823", "test": "MIC, agar-dilution method in Mueller-Hinton agar", "type": "cell-based", "conditions": "Staphylococcus epidermidis, Teicoplanin resistant, methicillin resistant", "text": "as §1\n(§2) c = Teicoplanin resistant\n(§3) Strains 5 to 26 are methicillin resistant staphylococci."}, "[3]": {"test_system": "Staph. epidermidis 825", "test": "MIC, agar-dilution method in Mueller-Hinton agar", "type": "cell-based", "conditions": "Staphylococcus epidermidis, Teicoplanin resistant, methicillin resistant", "text": "as §1, §2, §3"}, "[4]": {"test_system": "streptococci", "test": "treatment of experimental animals infected with streptococci", "type": "in vivo"}, "[5]": {"test_system": "Staph. epidermidis 291", "test": "MIC, agar-dilution method in Mueller-Hinton agar", "type": "cell-based", "conditions": "Staphylococcus epidermidis, methicillin resistant", "text": "as §1, §3"}, "[6]": {"test_system": "Staph. aureus 722", "test": "MIC, agar-dilution method in Mueller-Hinton agar", "type": "cell-based", "conditions": "Staphylococcus aureus, methicillin resistant", "text": "as §1, §3"}, "[7]": {"test_system": "Staph. epidermidis 607", "test": "MIC, agar-dilution method in Mueller-Hinton agar", "type": "cell-based", "conditions": "Staphylococcus epidermidis, methicillin resistant", "text": "as §1, §3"}, "[8]": {"test_system": "Staph. aureus Co. 1", "test": "MIC, agar-dilution method in Mueller-Hinton agar", "type": "cell-based", "conditions": "Staphylococcus aureus, methicillin resistant", "text": "as §1, §3"}, "[9]": {"test_system": "Staph. aureus 706", "test": "MIC, agar-dilution method in Mueller-Hinton agar", "type": "cell-based", "conditions": "Staphylococcus aureus, methicillin resistant", "text": "as §1, §3"}, "[10]": {"test_system": "Staph. aureus 789", "test": "MIC, agar-dilution method in Mueller-Hinton agar", "type": "cell-based", "conditions": "Staphylococcus aureus, methicillin resistant", "text": "as §1, §3"}, "[11]": {"test_system": "Staph. aureus 690", "test": "MIC, agar-dilution method in Mueller-Hinton agar", "type": "cell-based", "conditions": "Staphylococcus aureus, methicillin resistant", "text": "as §1, §3"}, "[12]": {"test_system": "Staph. aureus 725", "test": "MIC, agar-dilution method in Mueller-Hinton agar", "type": "cell-based", "conditions": "Staphylococcus aureus, methicillin resistant", "text": "as §1, §3"}, "[13]": {"test_system": "Staph. haemolyticus 809", "test": "MIC, agar-dilution method in Mueller-Hinton agar", "type": "cell-based", "conditions": "Staphylococcus haemolyticus", "text": "as §1, §3"}, "[14]": {"test_system": "Staph. epidermidis 178", "test": "MIC, agar-dilution method in Mueller-Hinton agar", "type": "cell-based", "conditions": "Staphylococcus epidermidis, methicillin resistant", "text": "as §1, §3"}, "[15]": {"test_system": "Staph. aureus C 31153", "test": "MIC, agar-dilution method in Mueller-Hinton agar", "type": "cell-based", "conditions": "Staphylococcus aureus, C31153, methicillin resistant", "text": "as §1, §3"}, "[16]": {"test_system": "Staph. epidermidis 2 Tub", "test": "MIC, agar-dilution method in Mueller-Hinton agar", "type": "cell-based", "conditions": "Staphylococcus epidermidis, methicillin resistant", "text": "as §1, §3"}, "[17]": {"test_system": "Staph. haemolyticus 712", "test": "MIC, agar-dilution method in Mueller-Hinton agar", "type": "cell-based", "conditions": "Staphylococcus haemolyticus", "text": "as §1, §3"}, "[18]": {"test_system": "Staph. aureus E 121", "test": "MIC, agar-dilution method in Mueller-Hinton agar", "type": "cell-based", "conditions": "Staphylococcus aureus, E121, methicillin resistant", "text": "as §1, §3"}, "[19]": {"test_system": "Staph. aureus 011UC5", "test": "MIC, agar-dilution method in Mueller-Hinton agar", "type": "cell-based", "conditions": "Staphylococcus aureus, methicillin resistant", "text": "as §1, §3"}, "[20]": {"test_system": "Staph. aureus E 88", "test": "MIC, agar-dilution method in Mueller-Hinton agar", "type": "cell-based", "conditions": "Staphylococcus aureus, E88, methicillin resistant", "text": "as §1, §3"}, "[21]": {"test_system": "Staph. aureus 694", "test": "MIC, agar-dilution method in Mueller-Hinton agar", "type": "cell-based", "conditions": "Staphylococcus aureus, methicillin resistant", "text": "as §1, §3"}, "[22]": {"test_system": "Staph. aureus 712", "test": "MIC, agar-dilution method in Mueller-Hinton agar", "type": "cell-based", "conditions": "Staphylococcus aureus, methicillin resistant", "text": "as §1, §3"}, "[23]": {"test_system": "Staph. aureus 710", "test": "MIC, agar-dilution method in Mueller-Hinton agar", "type": "cell-based", "conditions": "Staphylococcus aureus, methicillin resistant", "text": "as §1, §3"}, "[24]": {"test_system": "Staph. epidermidis 109", "test": "MIC, agar-dilution method in Mueller-Hinton agar", "type": "cell-based", "conditions": "Staphylococcus epidermidis, methicillin resistant", "text": "as §1, §3"}, "[25]": {"test_system": "Ent. faecium van R1", "test": "MIC, agar-dilution method in Mueller-Hinton agar", "type": "cell-based", "conditions": "Enterococcus faecium, VANR1", "text": "as §1, §2\nd = Vancomycin resistant"}, "[26]": {"test": "Solubility", "type": "physicochemical"}, "[27]": {"test_system": "staphylococci", "test": "treatment of experimental animals infected with staphylococci", "type": "in vivo"}, "[28]": {"test_system": "Ent. faecalis 782", "test": "MIC, agar-dilution method in Mueller-Hinton agar", "type": "cell-based", "conditions": "Enterococcus faecalis", "text": "as §1"}, "[29]": {"test_system": "Ent. faecalis 21777", "test": "MIC, agar-dilution method in Mueller-Hinton agar", "type": "cell-based", "conditions": "Enterococcus faecalis", "text": "as §1"}, "[30]": {"test_system": "Ent. faecalis 26777", "test": "MIC, agar-dilution method in Mueller-Hinton agar", "type": "cell-based", "conditions": "Enterococcus faecalis", "text": "as §1"}, "[31]": {"test_system": "Ent. faecalis 3903", "test": "MIC, agar-dilution method in Mueller-Hinton agar", "type": "cell-based", "conditions": "Enterococcus faecalis", "text": "as §1"}, "[32]": {"test_system": "Staph. aureus 3066", "test": "MIC, agar-dilution method in Mueller-Hinton agar", "type": "cell-based", "conditions": "Staphylococcus aureus", "text": "as §1"}, "[33]": {"test_system": "Ent. faecalis UD8b", "test": "MIC, agar-dilution method in Mueller-Hinton agar", "type": "cell-based", "conditions": "Enterococcus faecalis", "text": "as §1"}, "[34]": {"test_system": "Ent. faecalis 734", "test": "MIC, agar-dilution method in Mueller-Hinton agar", "type": "cell-based", "conditions": "Enterococcus faecalis", "text": "as §1"}, "[35]": {"test_system": "Ent. faecalis Eder", "test": "MIC, agar-dilution method in Mueller-Hinton agar", "type": "cell-based", "conditions": "Enterococcus faecalis", "text": "as §1"}, "[36]": {"test_system": "Staph. aureus 209 P", "test": "MIC, agar-dilution method in Mueller-Hinton agar", "type": "cell-based", "conditions": "Staphylococcus aureus", "text": "as §1"}, "[37]": {"test_system": "Staph. aureus 20240", "test": "MIC, agar-dilution method in Mueller-Hinton agar", "type": "cell-based", "conditions": "Staphylococcus aureus, lactam resistant", "text": "as §1"}, "[38]": {"test_system": "Ent. faecalis D 65", "test": "MIC, agar-dilution method in Mueller-Hinton agar", "type": "cell-based", "conditions": "Enterococcus faecalis, D65", "text": "as §1"}, "[39]": {"test_system": "Staph. aureus 20424", "test": "MIC, agar-dilution method in Mueller-Hinton agar", "type": "cell-based", "conditions": "Staphylococcus aureus, Erythromycin resistant", "text": "as §1\na = Erythromycin resistant"}}, "data": [{"smiles": "CCCC1Cc2cc3c(c(O)c2C(=O)O1)-c1c(c(OC)c2oc4c(OC5CC(O)C(OC6CC(O)C(OC7CC(OC)C(O)C(C)O7)C(C)O6)C(C)O5)ccc(O)c4c(=O)c2c1O)C(O)C3O", "note": "(centres unmarked) [M901809]", "values": [{"measurement": "activity against gram-positive bacteria", "setting": "[1]", "value": "active"}, {"measurement": "MIC", "setting": "[2]", "value": 0.4, "unit": "µg/mL"}, {"measurement": "MIC", "setting": "[3]", "value": 0.8, "unit": "µg/mL"}, {"measurement": "activity in treatment of infected experimental animals", "setting": "[4]", "value": "active"}, {"measurement": "MIC", "setting": "[5]", "value": 0.2, "unit": "µg/mL"}, {"measurement": "MIC", "setting": "[6]", "value": 0.2, "unit": "µg/mL"}, {"measurement": "MIC", "setting": "[7]", "value": 0.4, "unit": "µg/mL"}, {"measurement": "MIC", "setting": "[8]", "value": 0.1, "unit": "µg/mL"}, {"measurement": "MIC", "setting": "[9]", "value": 0.2, "unit": "µg/mL"}, {"measurement": "MIC", "setting": "[10]", "value": 0.1, "unit": "µg/mL"}, {"measurement": "MIC", "setting": "[11]", "value": 0.2, "unit": "µg/mL"}, {"measurement": "MIC", "setting": "[12]", "value": 0.1, "unit": "µg/mL"}, {"measurement": "MIC", "setting": "[13]", "value": 0.4, "unit": "µg/mL"}, {"measurement": "MIC", "setting": "[14]", "value": 0.2, "unit": "µg/mL"}, {"measurement": "MIC", "setting": "[15]", "value": 0.1, "unit": "µg/mL"}, {"measurement": "MIC", "setting": "[16]", "value": 0.2, "unit": "µg/mL"}, {"measurement": "MIC", "setting": "[17]", "value": 0.2, "unit": "µg/mL"}, {"measurement": "MIC", "setting": "[18]", "value": 0.2, "unit": "µg/mL"}, {"measurement": "MIC", "setting": "[19]", "value": 0.1, "unit": "µg/mL"}, {"measurement": "MIC", "setting": "[20]", "value": 0.2, "unit": "µg/mL"}, {"measurement": "MIC", "setting": "[21]", "value": 0.2, "unit": "µg/mL"}, {"measurement": "MIC", "setting": "[22]", "value": 0.2, "unit": "µg/mL"}, {"measurement": "MIC", "setting": "[23]", "value": 0.2, "unit": "µg/mL"}, {"measurement": "MIC", "setting": "[24]", "value": 0.4, "unit": "µg/mL"}, {"measurement": "MIC", "setting": "[25]", "value": 1.6, "unit": "µg/mL"}, {"measurement": "Solubility", "setting": "[26]; in CH2Cl2", "value": "Very soluble"}, {"measurement": "Solubility", "setting": "[26]; in CH3CN", "value": "Poor to moderate"}, {"measurement": "Solubility", "setting": "[26]; in CHCl3", "value": "Very soluble"}, {"measurement": "Solubility", "setting": "[26]; in DMSO", "value": "Very soluble"}, {"measurement": "Solubility", "setting": "[26]; in H2O", "value": "Insoluble"}, {"measurement": "Solubility", "setting": "[26]; in MeOH", "value": "Poor to moderate"}, {"measurement": "Solubility", "setting": "[26]; in ethyl acetate", "value": "Poor to moderate"}, {"measurement": "Solubility", "setting": "[26]; in hexane", "value": "Insoluble"}, {"measurement": "Solubility", "setting": "[26]; in petroleum ether (40-60° C.)", "value": "Insoluble"}, {"measurement": "activity in treatment of infected experimental animals", "setting": "[27]", "value": "active"}, {"measurement": "MIC", "setting": "[28]", "value": 0.4, "unit": "µg/mL"}, {"measurement": "MIC", "setting": "[29]", "value": 0.4, "unit": "µg/mL"}, {"measurement": "MIC", "setting": "[30]", "value": 0.4, "unit": "µg/mL"}, {"measurement": "MIC", "setting": "[31]", "value": 0.4, "unit": "µg/mL"}, {"measurement": "MIC", "setting": "[32]", "value": 0.2, "unit": "µg/mL"}, {"measurement": "MIC", "setting": "[33]", "value": 0.8, "unit": "µg/mL"}, {"measurement": "MIC", "setting": "[34]", "value": 0.4, "unit": "µg/mL"}, {"measurement": "MIC", "setting": "[35]", "value": 0.4, "unit": "µg/mL"}, {"measurement": "MIC", "setting": "[36]", "value": 0.1, "unit": "µg/mL"}, {"measurement": "MIC", "setting": "[37]", "value": 0.2, "unit": "µg/mL"}, {"measurement": "MIC", "setting": "[38]", "value": 1.6, "unit": "µg/mL"}, {"measurement": "MIC", "setting": "[39]", "value": 0.2, "unit": "µg/mL"}]}]}
